{"source": "the supplement of paper PMC10307832", "assay_in_all_cases": "relative viability (nuclei count vs DMSO), 5 days (fraction); higher = more cells survive", "key": {"XMD13-2 + Dasatinib": {"compound": "C1CC1C(=O)NC2=NNC3=C2C=CC(=C3)C4=CC(=CC=C4)C(=O)NC5CC5 [XMD13-2] + Cc1nc(Nc2ncc(C(=O)Nc3c(C)cccc3Cl)s2)cc(N2CCN(CCO)CC2)n1 [Dasatinib] (partner 0.075 µM)", "method_in_brief": "(§1)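 Cells from lung cancer lines were seeded into 1536-well plates and, one day later, dosed by pin tool. Treatments were either a single drug or a fixed dose of an anchor drug with five library-drug doses (not always all listed) in √10 steps. After 5 days, nuclei were stained in a one-step fixation (final 0.05% Triton X-100, 1% formaldehyde, 1 ug/ml Hoechst) and counted on 4× images, and relative viability is the treated-to-vehicle nuclei ratio, as the median of duplicate plates.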"}, "ALW-II-49-7 + Alpelisib": {"compound": "Cc1ccc(C(=O)Nc2cccc(C(F)(F)F)c2)cc1Nc1cncc(C(N)=O)c1 [ALW-II-49-7] + Cc1nc(NC(=O)N2CCC[C@H]2C(N)=O)sc1-c1ccnc(C(C)(C)C(F)(F)F)c1 [Alpelisib] (partner 2 µM)", "method_in_brief": "as §1"}, "Dasatinib + Luminespib": {"compound": "Cc1nc(Nc2ncc(C(=O)Nc3c(C)cccc3Cl)s2)cc(N2CCN(CCO)CC2)n1 [Dasatinib] + CCNC(=O)c1noc(-c2cc(C(C)C)c(O)cc2O)c1-c1ccc(CN2CCOCC2)cc1 [Luminespib] (partner 0.01 µM)", "method_in_brief": "as §1"}, "Dasatinib + Decitabine": {"compound": "Cc1nc(Nc2ncc(C(=O)Nc3c(C)cccc3Cl)s2)cc(N2CCN(CCO)CC2)n1 [Dasatinib] + Nc1ncn([C@H]2C[C@H](O)[C@@H](CO)O2)c(=O)n1 [Decitabine] (partner 2 µM)", "method_in_brief": "as §1"}}, "data": [{"cell line": "LC-2-ad", "values": [{"measurement": "relative viability", "setting": "XMD13-2 + Dasatinib; first compound 0.05 µM", "value": 0.899}, {"measurement": "relative viability", "setting": "XMD13-2 + Dasatinib; first compound 0.1581 µM", "value": 0.39}, {"measurement": "relative viability", "setting": "XMD13-2 + Dasatinib; first compound 0.5 µM", "value": 0.711}, {"measurement": "relative viability", "setting": "XMD13-2 + Dasatinib; first compound 1.581 µM", "value": 0.535}, {"measurement": "relative viability", "setting": "XMD13-2 + Dasatinib; first compound 5 µM", "value": 0.559}, {"measurement": "relative viability", "setting": "ALW-II-49-7 + Alpelisib; first compound 0.08 µM", "value": 0.911}, {"measurement": "relative viability", "setting": "ALW-II-49-7 + Alpelisib; first compound 0.253 µM", "value": 0.884}, {"measurement": "relative viability", "setting": "ALW-II-49-7 + Alpelisib; first compound 0.8 µM", "value": 0.847}, {"measurement": "relative viability", "setting": "ALW-II-49-7 + Alpelisib; first compound 2.53 µM", "value": 0.892}, {"measurement": "relative viability", "setting": "ALW-II-49-7 + Alpelisib; first compound 8 µM", "value": 0.864}, {"measurement": "relative viability", "setting": "Dasatinib + Luminespib; first compound 0.005 µM", "value": 1.1}, {"measurement": "relative viability", "setting": "Dasatinib + Luminespib; first compound 0.01581 µM", "value": 1.11}, {"measurement": "relative viability", "setting": "Dasatinib + Luminespib; first compound 0.05 µM", "value": 0.86}, {"measurement": "relative viability", "setting": "Dasatinib + Luminespib; first compound 0.1581 µM", "value": 0.774}, {"measurement": "relative viability", "setting": "Dasatinib + Luminespib; first compound 0.5 µM", "value": 0.376}, {"measurement": "relative viability", "setting": "Dasatinib + Decitabine; first compound 0.005 µM", "value": 0.745}, {"measurement": "relative viability", "setting": "Dasatinib + Decitabine; first compound 0.01581 µM", "value": 0.822}, {"measurement": "relative viability", "setting": "Dasatinib + Decitabine; first compound 0.05 µM", "value": 0.781}, {"measurement": "relative viability", "setting": "Dasatinib + Decitabine; first compound 0.1581 µM", "value": 0.744}, {"measurement": "relative viability", "setting": "Dasatinib + Decitabine; first compound 0.5 µM", "value": 0.393}]}, {"cell line": "NCI-H838", "values": [{"measurement": "relative viability", "setting": "XMD13-2 + Dasatinib; first compound 0.05 µM", "value": 0.276}, {"measurement": "relative viability", "setting": "XMD13-2 + Dasatinib; first compound 0.1581 µM", "value": 0.293}, {"measurement": "relative viability", "setting": "XMD13-2 + Dasatinib; first compound 0.5 µM", "value": 0.274}, {"measurement": "relative viability", "setting": "XMD13-2 + Dasatinib; first compound 1.581 µM", "value": 0.241}, {"measurement": "relative viability", "setting": "XMD13-2 + Dasatinib; first compound 5 µM", "value": 0.318}, {"measurement": "relative viability", "setting": "ALW-II-49-7 + Alpelisib; first compound 0.08 µM", "value": 0.847}, {"measurement": "relative viability", "setting": "ALW-II-49-7 + Alpelisib; first compound 0.253 µM", "value": 1.13}, {"measurement": "relative viability", "setting": "ALW-II-49-7 + Alpelisib; first compound 0.8 µM", "value": 1}, {"measurement": "relative viability", "setting": "ALW-II-49-7 + Alpelisib; first compound 2.53 µM", "value": 1.13}, {"measurement": "relative viability", "setting": "ALW-II-49-7 + Alpelisib; first compound 8 µM", "value": 0.987}, {"measurement": "relative viability", "setting": "Dasatinib + Luminespib; first compound 0.005 µM", "value": 0.265}, {"measurement": "relative viability", "setting": "Dasatinib + Luminespib; first compound 0.01581 µM", "value": 0.24}, {"measurement": "relative viability", "setting": "Dasatinib + Luminespib; first compound 0.05 µM", "value": 0.196}, {"measurement": "relative viability", "setting": "Dasatinib + Luminespib; first compound 0.1581 µM", "value": 0.189}, {"measurement": "relative viability", "setting": "Dasatinib + Luminespib; first compound 0.5 µM", "value": 0.158}, {"measurement": "relative viability", "setting": "Dasatinib + Decitabine; first compound 0.005 µM", "value": 0.45}, {"measurement": "relative viability", "setting": "Dasatinib + Decitabine; first compound 0.01581 µM", "value": 0.422}, {"measurement": "relative viability", "setting": "Dasatinib + Decitabine; first compound 0.05 µM", "value": 0.39}, {"measurement": "relative viability", "setting": "Dasatinib + Decitabine; first compound 0.1581 µM", "value": 0.377}, {"measurement": "relative viability", "setting": "Dasatinib + Decitabine; first compound 0.5 µM", "value": 0.3}]}, {"cell line": "Calu-6", "values": [{"measurement": "relative viability", "setting": "ALW-II-49-7 + Alpelisib; first compound 0.08 µM", "value": 1.04}, {"measurement": "relative viability", "setting": "ALW-II-49-7 + Alpelisib; first compound 0.253 µM", "value": 0.984}, {"measurement": "relative viability", "setting": "ALW-II-49-7 + Alpelisib; first compound 0.8 µM", "value": 0.95}, {"measurement": "relative viability", "setting": "ALW-II-49-7 + Alpelisib; first compound 2.53 µM", "value": 0.91}, {"measurement": "relative viability", "setting": "ALW-II-49-7 + Alpelisib; first compound 8 µM", "value": 0.791}]}, {"cell line": "NCI-H1648", "values": [{"measurement": "relative viability", "setting": "Dasatinib + Decitabine; first compound 0.005 µM", "value": 0.494}, {"measurement": "relative viability", "setting": "Dasatinib + Decitabine; first compound 0.01581 µM", "value": 0.477}, {"measurement": "relative viability", "setting": "Dasatinib + Decitabine; first compound 0.05 µM", "value": 0.506}, {"measurement": "relative viability", "setting": "Dasatinib + Decitabine; first compound 0.1581 µM", "value": 0.457}, {"measurement": "relative viability", "setting": "Dasatinib + Decitabine; first compound 0.5 µM", "value": 0.241}]}, {"cell line": "LCLC-97TM1", "values": [{"measurement": "relative viability", "setting": "XMD13-2 + Dasatinib; first compound 0.05 µM", "value": 0.829}, {"measurement": "relative viability", "setting": "XMD13-2 + Dasatinib; first compound 0.1581 µM", "value": 0.784}, {"measurement": "relative viability", "setting": "XMD13-2 + Dasatinib; first compound 0.5 µM", "value": 0.839}, {"measurement": "relative viability", "setting": "XMD13-2 + Dasatinib; first compound 1.581 µM", "value": 0.728}, {"measurement": "relative viability", "setting": "XMD13-2 + Dasatinib; first compound 5 µM", "value": 0.695}, {"measurement": "relative viability", "setting": "ALW-II-49-7 + Alpelisib; first compound 0.08 µM", "value": 0.245}, {"measurement": "relative viability", "setting": "ALW-II-49-7 + Alpelisib; first compound 0.253 µM", "value": 0.245}, {"measurement": "relative viability", "setting": "ALW-II-49-7 + Alpelisib; first compound 0.8 µM", "value": 0.296}, {"measurement": "relative viability", "setting": "ALW-II-49-7 + Alpelisib; first compound 2.53 µM", "value": 0.195}, {"measurement": "relative viability", "setting": "ALW-II-49-7 + Alpelisib; first compound 8 µM", "value": 0.269}, {"measurement": "relative viability", "setting": "Dasatinib + Luminespib; first compound 0.005 µM", "value": 0.844}, {"measurement": "relative viability", "setting": "Dasatinib + Luminespib; first compound 0.01581 µM", "value": 0.798}, {"measurement": "relative viability", "setting": "Dasatinib + Luminespib; first compound 0.05 µM", "value": 0.901}, {"measurement": "relative viability", "setting": "Dasatinib + Luminespib; first compound 0.1581 µM", "value": 0.598}, {"measurement": "relative viability", "setting": "Dasatinib + Luminespib; first compound 0.5 µM", "value": 0.309}, {"measurement": "relative viability", "setting": "Dasatinib + Decitabine; first compound 0.005 µM", "value": 0.203}, {"measurement": "relative viability", "setting": "Dasatinib + Decitabine; first compound 0.01581 µM", "value": 0.224}, {"measurement": "relative viability", "setting": "Dasatinib + Decitabine; first compound 0.05 µM", "value": 0.283}, {"measurement": "relative viability", "setting": "Dasatinib + Decitabine; first compound 0.1581 µM", "value": 0.177}, {"measurement": "relative viability", "setting": "Dasatinib + Decitabine; first compound 0.5 µM", "value": 0.144}]}, {"cell line": "HCC-15", "values": [{"measurement": "relative viability", "setting": "XMD13-2 + Dasatinib; first compound 0.05 µM", "value": 0.775}, {"measurement": "relative viability", "setting": "XMD13-2 + Dasatinib; first compound 0.1581 µM", "value": 0.66}, {"measurement": "relative viability", "setting": "XMD13-2 + Dasatinib; first compound 0.5 µM", "value": 0.715}, {"measurement": "relative viability", "setting": "XMD13-2 + Dasatinib; first compound 1.581 µM", "value": 0.614}, {"measurement": "relative viability", "setting": "XMD13-2 + Dasatinib; first compound 5 µM", "value": 0.423}, {"measurement": "relative viability", "setting": "ALW-II-49-7 + Alpelisib; first compound 0.08 µM", "value": 0.901}, {"measurement": "relative viability", "setting": "ALW-II-49-7 + Alpelisib; first compound 0.253 µM", "value": 0.931}, {"measurement": "relative viability", "setting": "ALW-II-49-7 + Alpelisib; first compound 0.8 µM", "value": 0.949}, {"measurement": "relative viability", "setting": "ALW-II-49-7 + Alpelisib; first compound 2.53 µM", "value": 0.907}, {"measurement": "relative viability", "setting": "ALW-II-49-7 + Alpelisib; first compound 8 µM", "value": 0.845}, {"measurement": "relative viability", "setting": "Dasatinib + Luminespib; first compound 0.005 µM", "value": 0.381}, {"measurement": "relative viability", "setting": "Dasatinib + Luminespib; first compound 0.01581 µM", "value": 0.316}, {"measurement": "relative viability", "setting": "Dasatinib + Luminespib; first compound 0.05 µM", "value": 0.248}, {"measurement": "relative viability", "setting": "Dasatinib + Luminespib; first compound 0.1581 µM", "value": 0.247}, {"measurement": "relative viability", "setting": "Dasatinib + Luminespib; first compound 0.5 µM", "value": 0.108}, {"measurement": "relative viability", "setting": "Dasatinib + Decitabine; first compound 0.005 µM", "value": 0.609}, {"measurement": "relative viability", "setting": "Dasatinib + Decitabine; first compound 0.01581 µM", "value": 0.606}, {"measurement": "relative viability", "setting": "Dasatinib + Decitabine; first compound 0.05 µM", "value": 0.496}, {"measurement": "relative viability", "setting": "Dasatinib + Decitabine; first compound 0.1581 µM", "value": 0.428}, {"measurement": "relative viability", "setting": "Dasatinib + Decitabine; first compound 0.5 µM", "value": 0.466}]}]}
